Laboratory results reported in patent US10660789B2, “1,4-dihydropyridine derivatives with HSP modulating activity” (Richter Gedeon NYRT., priority 2011, dated 2020).
Structures can show the parent of a compound that is named as a salt.

Experiments:
other Hsps = assay: Other in vitro HSP modulating effects (Table 3); assay type: cell-based, mouse and human; parameters: key: +: co-inducing activity; −: silencing activity; 0: with the experimental methods applied no other HSP modulating effects could be identified
Procedure: (§1) The Hsp co-inducing effect of the compounds on stress response was tested on B16 mouse melanoma and SHSY5Y human neuroblastoma cell lines stably transfected with Hsp promoter probing plasmids. This kind of promoter probing, using the promoter region of a given gene conjugated with fluorescent protein is used as a best and fastest test system for finding drugs which modulate the activity of the gene followed by the given promoter (Wyshocka et al., Mol. Cel. Biochem. 215:153-156, 2000).
(§2) Reporter plasmids, containing the Hsp70 and/or Hsp25 promoter conjugated to either YFP or GFP (yellow or green fluorescent protein), were stably transfected into the cells and the expression of YFP or GFP was followed by flow cytometry. Cells were either kept at 37° C. or exposed to heat shock at 42° C. for 1 hour followed by a 16 hour recovery period at 37° C. in the presence or absence of different concentrations of the test compound. After recovery the expression of YFP or GFP which is in straight correlation with the promoter activity of Hsp70 or Hsp27 genes was followed by measuring the fluorescence intensity of the cells by flow cytometry. Fluorescence intensity is in straight correlation with the amount of fluorescent protein (GFP or YFP) produced under the control of hsp promoter. The mean fluorescence intensity of YFP or GFP produced is shown as “Hsp promoter activity”.
(§3) Cells were homogenously distributed on 6-well plates in 1×10^5 cells/well density. B16-pHsp25-GFP and B16-pHsp70-YFP melanoma cells were grown in RPMI-1640 medium supplemented with 10% Fetal bovine serum (FBS), penicillin (200 units/ml), streptomycin (200 μg/ml) and 2 mM L-Glutamine. For maintaining the SH-SY5Y-pHsp25-GFP and SH-SY5YpHsp70-YFP neuroblastoma cell lines Dulbecco's modified Eagle's medium (DMEM-F-12) containing 10% FBS, 2 mM L-Glutamine, penicillin (200 units/ml), streptomycin (200 μg/ml) and MEM non-essential amino acids were used. Before the treatments both cell lines were incubated at 37° C. in a saturated humidity atmosphere containing 95% air and 5% CO2. After 24 h incubation cells were pretreated with compounds of the invention in four different concentrations (usually in 3; 10; 20 and 50 μM) 30 min before the heat shock at 42° C. for 1 h and then incubated further at 37° C. for 16 h (recovery period). After this procedure cells were trypsinized and suspensed in 500 μl serum-free DMEM-F12 medium. The changes in cells' fluorescence were detected using BD FACSCalibur flow cytometer.
SY-SY5Y and B16 cells were extracted in NP-40 lysis buffer (PBS pH 7.4, 1% protease inhibitor coctail and 1% Triton X-100). The cell extracts were then constantly agitated at 4° C. for 2 h. The cell extracts were centrifuged at 12000×g for 30 min and supernatants were saved. After the protein concentration measurement 15 μg of total protein was separated by sodium dodecyl sulfate-polyacrylamide gel electrophoresis (SDS-PAGE) under reducing conditions according to the method of Laemmli. Proteins were blotted onto PVDF membrane. The blot was incubated overnight at 4° C. in the presence of mouse α-Hsp25, α-Hsp70, α-Hsp60 és α-Hsp90 monoclonal antibodies diluted in PBS. Then, the membrane was washed three times in PBS-0.05% Tween and incubated for 1 h in peroxidase-conjugated anti-mouse IgG antibody diluted 1:50000 in PBS containing 3% non-fat dry milk. The immune complexes were detected with chemo-luminescent substrate of peroxidase according to the supplier's instructions. Images taken from the membranes were analyzed using AlphaEase FC software.

Hsp70 promoter = assay: Hsp promoter probing, Hsp70 promoter-YFP reporter, flow cytometry (Table 3); assay type: cell-based, mouse and human; parameters: key: +: co-inducing activity; −: silencing activity; 0: with the experimental methods applied no other HSP modulating effects could be identified; conditions: heat shock 42° C. 1 h, 16 h recovery; B16 or SHSY5Y reporter cells, cell line per value not stated
Procedure: as §1
The Hsp encoding genes are transactivated through the binding of HSF to the heat shock element found on the DNA upstream of the Hsp genes, in the so called promoter region. In the absence of heat stress, the heat shock factors are present as monomers. Upon heat stress, however, the heat shock factors form trimers, which are the active components, able to bind to heat shock elements. Once HSF is bound to the heat shock element in the promoter of Hsp genes, the gene following the promoter region is transcriptionally active.
as §2, §3

Row | melting point | Compound | Other in vitro effects (other Hsps) | Hsp70 modulation (Hsp70 promoter)
1 | 201 to 203 °C | COC(=O)C1=C(C)N(C)C(CCN(C)C)=C(C(=O)OC)C1c1cc(F)cc(F)c1.Cl (centres unmarked) [Example 26, Dimethyl 4-(3,5-difluorophenyl)-2-(2-dimethylamino-ethyl)-1,6-dimethyl-1,4-dihydropyridine-3,5-dicarboxylate hydrochloride] | 0 | +
2 | 204 to 206 °C | O=C(O)C1=CN(Cc2ccccc2)C=C(C(=O)O)C1c1ccccc1 [Example 39, 1-Benzyl-4-phenyl-1,4-dihydropyridine-3,5-dicarboxylic acid] | 0 | −
3 |  | COC(=O)C1=C(CCN(C)C)N(C)C(CCN(C)C)=C(C(=O)OC)C1c1cc(F)cc(F)c1 [Example 25, Dimethyl 4-(3,5-Difluorophenyl)-2,6-bis-(2-dimethylaminoethyl)-1-methyl-1,4-dihydropyridine-3,5-dicarboxylate dihydrochloride] | 0 | +
4 | 168 to 170 °C | COC(=O)C1=C(C)N(C)C(C)=C(C(=O)OC)C1c1ccccc1C(F)(F)F [Example 8, Dimethyl 1,2,6-trimethyl-4-(2-trifluoromethylphenyl)-1,4-dihydropyridine-3,5-dicarboxylate] | 0 | +
5 | 107 to 108 °C | CCOC(=O)C1=CN(Cc2ccccc2)C=C(C(=O)OCC)C1c1ccc(C(F)(F)F)cc1 [Example 34] | 0 | +
6 | 118 to 119 °C | COC(=O)C1=C(C)N(C)C(C)=C(C(=O)OC)C1c1cccc(C(F)(F)F)c1 [Example 7, Dimethyl 1,2,6-trimethyl-4-(3-trifluoromethylphenyl)-1,4-dihydropyridine-3,5-dicarboxylate] | 0 | +
7 | 173 to 175 °C | COC(=O)C1=C(C)N(C)C(C)=C(C(=O)OC)C1c1cccnc1 [Example 12, Dimethyl 1,2,6-trimethyl-4-(3-piridyl)-1,4-dihydropyridine-3,5-dicarboxylate] | 0 | −
8 | 123 to 124 °C | CCOC(=O)C1=CN(C2CC2)C=C(C(=O)OCC)C1c1ccc(C(F)(F)F)cc1 [Example 33, Diethyl 1-cyclopropyl-4-(4-trifluoromethylphenyl)-1,4-dihydro-pyridine-3,5-dicarboxylate] | 0 | +
9 |  | COC(=O)C1=C(CCN(C)C)N(C)C(CCN2CCCCC2)=C(C(=O)OC)C1c1ccc(C(F)(F)F)cc1 (centres unmarked) [Example 30, Dimethyl 2-(2-dimethylamino-ethyl)-1-methyl-6-(2-piperidin-1-yl-ethyl)-4-(4-trifluoromethylphenyl)-1,4-dihydropyridine-3,5-dicarboxylate dihydrochloride] | 0 | +
10 |  | COC(=O)C1=C(CCN2CCN(C)CC2)N(C)C(CCN2CCN(C)CC2)=C(C(=O)OC)C1c1ccc(C(F)(F)F)cc1 [Example 16, Dimethyl 1-methyl-2,6-bis-[2-(4-methyl-piperazin-1-yl)-ethyl]-4-(4-trifluoromethylphenyl)-1,4-dihydropyridine-3,5-dicarboxylate hydrochloride] | 0 | 
11 | 163 to 164 °C | COC(=O)C1=C(C)N(C)C(C)=C(C(=O)OC)C1c1ccc(OC)cc1 [Example 6, Dimethyl 1,2,6-trimethyl-4-(4-methoxyphenyl)-1,4-dihydropyridine-3,5-dicarboxylate] | 0 | 
12 |  | CCOC(=O)C1=CN(Cc2ccccc2)C=C(C(=O)OCC)C1c1ccccc1 [Example 38, Diethyl 1-benzyl-4-phenyl-1,4-dihydropyridine-3,5-dicarboxylate, reference compound] | 0 | +
13 | 261 to 265 °C | COC(=O)C1=C(CCN(C)C)N(C)C(CCN(C)C)=C(C(=O)OC)C1c1cc(F)cc(F)c1 (as salt: hydrochloride) [Example 25, Dimethyl 4-(3,5-Difluorophenyl)-2,6-bis-(2-dimethylaminoethyl)-1-methyl-1,4-dihydropyridine-3,5-dicarboxylate dihydrochloride] |  | 
14 | 182 to 185 °C | COC(=O)C1=C(C)N(C)C(CN2CCCC2)=C(C(=O)OC)C1c1ccc(C(F)(F)F)cc1.Cl (centres unmarked) |  | 
15 | 152 to 153 °C | CC1=C(C(=O)O)C(c2ccc(C(F)(F)F)cc2)C(C(=O)O)=C(C)N1C [Example 36, 1,2,6-Trimethyl-4-(4-trifluoromethylphenyl)-1,4-dihydropyridine-3,5-dicarboxylic acid] |  | 
16 | 150 to 155 °C | COC(=O)C1=C(C)N(C)C(C)=C(C(=O)O)C1c1ccc(C(F)(F)F)cc1 (centres unmarked) [Example 35, 1,2,6-Trimethyl-4-(4-trifluoromethylphenyl)-1,4-dihydropyridine-3,5-dicarboxylic acid monomethyl ester] |  | 
17 | 247 to 249 °C | COC(=O)C1=C(CCN(C)C)N(C)C(CCN2CCCCC2)=C(C(=O)OC)C1c1ccc(C(F)(F)F)cc1 (centres unmarked) (as salt: hydrochloride) [Example 30, Dimethyl 2-(2-dimethylamino-ethyl)-1-methyl-6-(2-piperidin-1-yl-ethyl)-4-(4-trifluoromethylphenyl)-1,4-dihydropyridine-3,5-dicarboxylate dihydrochloride] |  | 
18 | 179 to 180 °C | COC(=O)C1=C(C)N(C)C(C)=C(C(=O)OC)C1c1ccc(Cl)cc1 [Example 4, Dimethyl 1,2,6-trimethyl-4-(4-chlorophenyl)-1,4-dihydropyridine-3,5-dicarboxylate] | 0 | 
19 | 202 to 203 °C | COC(=O)C1=C(C)N(C)C(CCN2CCc3ccccc3CC2)=C(C(=O)OC)C1c1ccc(C(F)(F)F)cc1.O=C(O)/C=C/C(=O)O (centres unmarked) |  | 
20 | 190 to 192 °C | COC(=O)C1=C(C)N(C)C(CN2CCCCC2)=C(C(=O)OC)C1c1ccc(C(F)(F)F)cc1.Cl (centres unmarked) |  | 
21 | 218 to 219 °C | COC(=O)C1=C(C)N(C)C(CCN2CCCC2)=C(C(=O)OC)C1c1ccc(C(F)(F)F)cc1.Cl (centres unmarked) |  | 
22 |  | COC(=O)C1=C(CCN(C)C)N(C)C(CCN2CCc3cc(OC)c(OC)cc3C2)=C(C(=O)OC)C1c1ccc(C(F)(F)F)cc1 (centres unmarked) [Example 42, Dimethyl 2-[2-(6,7-dimethoxy-1,2,3,4-tetrahydroisoquinolin-2-yl)-ethyl]-6-(2-dimethylamino-ethyl)-1-methyl-4-(4-trifluoromethylphenyl)-1,4-dihydropyridine-3,5-dicarboxylate dihydrochloride] | 0 | +
23 | 175 to 177 °C | COC(=O)C1=C(C)N(C)C(CN2CCc3ccccc3C2)=C(C(=O)OC)C1c1ccc(C(F)(F)F)cc1.Cl (centres unmarked) [Example 49, Dimethyl 2-(1,2,3,4-tetrahydro-1H-isoquinolin-2-ylmethyl)-1,6-dimethyl-4-(4-trifluoromethylphenyl)-1,4-dihydropyridine-3,5-dicarboxylate hydrochloride] | 0 | 
